From US6627653B2, “Anticonvulsant derivatives useful for the treatment of depression” (Ortho-McNeil Pharmaceutical, Inc., priority 2000, dated 2003)
Like-named read-outs stand apart in the source and are kept apart here.

Legend:
[1] = Clinical case study, Example 2: topiramate add-on therapy; assay type: in vivo, human; conditions: for previous pharmacological treatment of patient's depression, outcome: treatment history of the Example 2 patient
Procedure: Initially the patient was started on topiramate add-on therapy at 25 mg/day, with increased dosage to 150 mg/day over the course of one month, in response to the patient's clinical behavior (the patient experienced suicidal ideation). One month later, the topiramate therapy was further increased to 300 mg/day, with the patient also taking 20 mg/day methylphenidate and 150 mg/day venlafaxine.

[2] = animal model of kindled epilepsy; cited from earlier work
[3] = adjunctive therapy or monotherapy; cited from earlier work
[4] = Clinical case study, Example 1: topiramate added to existing pharmacotherapy; assay type: in vivo, human
Procedure: In the first case, the patient was a person who had suffered from depression for 25 years.
Topiramate was prescribed for the patient as add-on therapy to existing treatment of venlafaxine at 225 mg/day and mirtazapine at 30 mg/day. Topiramate treatment was initiated at 25 mg/day, with increased dosage to 150 mg/day. […] After six months, mirtazapine was withdrawn and topiramate daily dosage increased to 200 mg/day.
Following one year, topiramate and venlafaxine were withdrawn because of a surgical procedure. […] The patient was subsequently restarted on topiramate at 300 mg/day.

[5] = several rodent models of epilepsy; cited from earlier work

SMILES | previous pharmacological treatment of patient's depression, outcome [1] | block of seizures [2] | efficacy in treating seizures [3] | patient-reported state ([1]; after three month of treatment) | mood state ([1]; at eight months of therapy, venlafaxine 150 mg/day and topiramate 300 mg/day) | clinical rating of depression ([1]; topiramate 300 mg/day with methylphenidate 20 mg/day and venlafaxine 150 mg/day, about two months) | clinical evaluation of depression ([4]; after eight months, topiramate 300 mg/day) | clinical evaluation of depression ([4]; after six months, mirtazapine withdrawn, topiramate 200 mg/day) | clinical evaluation of depression ([4]; after two months, topiramate 150 mg/day add-on to venlafaxine 225 mg/day and mirtazapine 30 mg/day) | patient-reported state after restart ([4]; restarted on topiramate 300 mg/day after relapse, following six months of treatment) | block of seizures [5]
N[C@@H]1C[C@H]1c1ccccc1 (racemic) [tranylcypromine] | unsuccessful | – | – | – | – | – | – | – | – | – | –
CN(C)CCC=C1c2ccccc2CCc2ccccc21 [amitriptyline] | unsuccessful | – | – | – | – | – | – | – | – | – | –
CC1(C)O[C@@H]2[C@@H](CO[C@@]3(COS(N)(=O)=O)OC(C)(C)O[C@@H]23)O1 [topiramate, 2,3:4,5-bis-O-(1-methylethylidene)-β-D-fructopyranose sulfamate] | – | effectively block seizures | effective | never felt so well | normothymic | much improved | very much improved | very much improved | very mild depressive | feeling very well | effectively block seizures
